According to article PMC5360270 (Journal of medicinal chemistry, 2016):

Columns and labels:
Assay type in all cases: cell-based
HIV-1C = assay: Antiviral p24 assay in MT-4 cells, multi-drug resistant variant HIV-1C; conditions: 50 TCID50 HIV-1C (multi-drug resistant)
HIV-1B = assay: Antiviral p24 assay in MT-4 cells, multi-drug resistant variant HIV-1B; conditions: 50 TCID50 HIV-1B (multi-drug resistant)
HIV-1DRV^RP20 = assay: Antiviral p24 assay in MT-4 cells, multi-drug resistant variant HIV-1DRVRP20; conditions: 50 TCID50 HIV-1DRV^RP20 (multi-drug resistant)
HIV-1LAI = assay: Antiviral assay in MT-2 cells exposed to HIV-1LAI, MTT assay; conditions: Human immunodeficiency virus 1, MT2
HIV-1NL4-3 = assay: Antiviral p24 assay in MT-4 cells, wild-type HIV-1NL4-3; conditions: 50 TCID50 wild-type HIV-1NL4-3, p24 assay

COc1ccc(S(=O)(=O)N(CC(C)C)C[C@@H](O)[C@H](CC23CC4CC(CC(C4)C2)C3)NC(=O)O[C@H]2CCOC2)cc1 [15a, (S)-Tetrahydrofuran-3-yl ((2S,3R)-1-((1s,3R)-adamantan-1-yl)-3-hydroxy-4-((N-isobutyl-4-methoxyphenyl)sulfonamido)butan-2-yl)carbamate]
Mean IC50 ± SD (HIV-1C): did not exhibit appreciable antiviral activity | Mean IC50 ± SD (HIV-1B): did not exhibit appreciable antiviral activity | Mean IC50 ± SD (HIV-1DRV^RP20): did not exhibit appreciable antiviral activity

CC(C)CN(C[C@@H](O)[C@H](Cc1ccccc1)NC(=O)O[C@H]1CO[C@H]2OCC[C@H]21)S(=O)(=O)c1ccc(N)cc1 [Darunavir, darunavir]
IC50 (HIV-1LAI): 3 nM

COc1ccc(S(=O)(=O)N(CC(C)C)C[C@@H](O)[C@H](CC23CC4CC(CC(C4)C2)C3)NC(=O)O[C@H]2CO[C@H]3OCC[C@H]32)cc1 [15d, (3R,3aS,6aR)-Hexahydrofuro[2,3-b]furan-3-yl ((2S,3R)-1-((1s,3R)-adamantan-1-yl)-3-hydroxy-4-((N-isobutyl-4-methoxyphenyl)sulfonamido)butan-2-yl)carbamate]
Mean IC50 ± SD (HIV-1NL4-3): low nanomolar | Mean IC50 ± SD (HIV-1B): did not show any appreciable antiviral activity | Mean IC50 ± SD (HIV-1DRV^RP20): did not show any appreciable antiviral activity
